The source made the active and inactive calls. The calls are words filed in the database; no cut-off is given here.
Tests used:
[1] = target: Cyclin-dependent kinase 5/CDK5 activator 1 (Homo sapiens) (UniProt Q00535+Q15078); test: Inhibition of CDK5/p25 (unknown origin) at 1 uM incubated for 30 to 60 mins presence of dithiothreitol by Cheng-Prusoff equation analysis relative to control; type: protein-complex assay; conditions: time 30-60 min
[2] = target: Cyclin-dependent kinase 1/cyclin B (Homo sapiens) (UniProt P06493+P14635+Q8WWL7+O95067); test: Inhibition of CDK1/Cyclin B (unknown origin) at 1 uM incubated for 30 to 60 mins presence of dithiothreitol by Cheng-Prusoff equation analysis relative to control; type: protein-complex assay; conditions: time 30-60 min
A2780 [3] = test: Antiproliferative activity against human A2780 cells assessed as inhibition of cell growth at 1 uM incubated for 72 hrs by MTT assay; type: functional; design: scale not given: the % may be the effect or the level left
[4] = target: CDK9/cyclin T1 (Homo sapiens) (UniProt O60563+P50750); test: Inhibition of CDK9/cyclin T1 (unknown origin) at 1 uM incubated for 30 to 60 mins presence of dithiothreitol by Cheng-Prusoff equation analysis relative to control; type: protein-complex assay; conditions: time 30-60 min
[5] = target: Cyclin-dependent kinase 2/cyclin E (Homo sapiens) (UniProt P24864+P24941+O96020); test: Inhibition of CDK2/cyclin E (unknown origin) at 1 uM incubated for 30 to 60 mins presence of dithiothreitol by Cheng-Prusoff equation analysis relative to control; type: protein-complex assay; conditions: time 30-60 min
CDK9/cyclin T1 = CDK9/cyclin T1 (Homo sapiens, UniProt P50750); test: Inhibition of CDK9/cyclin T1 (unknown origin) assessed as inhibition constant incubated for 30 to 60 mins presence of dithiothreitol by Cheng-Prusoff equation analysis; type: protein-complex assay
CDK9/cyclin T1, sequence (O60563 whole entry): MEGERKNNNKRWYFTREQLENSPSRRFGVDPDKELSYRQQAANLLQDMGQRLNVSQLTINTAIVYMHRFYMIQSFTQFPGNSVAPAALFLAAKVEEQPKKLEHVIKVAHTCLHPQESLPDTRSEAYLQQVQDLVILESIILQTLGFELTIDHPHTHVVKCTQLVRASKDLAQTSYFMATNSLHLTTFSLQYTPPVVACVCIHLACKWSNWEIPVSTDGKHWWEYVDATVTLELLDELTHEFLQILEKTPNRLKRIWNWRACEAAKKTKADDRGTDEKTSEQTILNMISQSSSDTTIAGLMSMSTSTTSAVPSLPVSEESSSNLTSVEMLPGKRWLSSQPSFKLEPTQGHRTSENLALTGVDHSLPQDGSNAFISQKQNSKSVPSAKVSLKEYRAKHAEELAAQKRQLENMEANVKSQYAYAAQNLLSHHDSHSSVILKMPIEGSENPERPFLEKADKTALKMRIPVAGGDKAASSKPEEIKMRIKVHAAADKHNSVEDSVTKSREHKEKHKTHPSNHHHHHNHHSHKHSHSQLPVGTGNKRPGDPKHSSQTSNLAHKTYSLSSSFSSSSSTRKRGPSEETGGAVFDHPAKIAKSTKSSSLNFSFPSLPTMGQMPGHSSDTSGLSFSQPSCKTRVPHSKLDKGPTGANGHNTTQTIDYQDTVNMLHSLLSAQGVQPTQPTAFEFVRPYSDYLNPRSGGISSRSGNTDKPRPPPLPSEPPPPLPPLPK
CDK9/cyclin T1, sequence (P50750 whole entry): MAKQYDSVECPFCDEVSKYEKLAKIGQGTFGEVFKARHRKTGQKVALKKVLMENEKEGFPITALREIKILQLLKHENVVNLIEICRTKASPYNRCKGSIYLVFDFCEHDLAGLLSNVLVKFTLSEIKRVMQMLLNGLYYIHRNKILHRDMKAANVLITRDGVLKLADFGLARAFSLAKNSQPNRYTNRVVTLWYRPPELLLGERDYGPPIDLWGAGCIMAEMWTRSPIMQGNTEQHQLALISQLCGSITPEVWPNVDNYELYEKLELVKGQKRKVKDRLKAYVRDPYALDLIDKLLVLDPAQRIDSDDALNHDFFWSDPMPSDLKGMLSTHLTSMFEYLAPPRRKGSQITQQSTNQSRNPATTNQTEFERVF

A2780 [6] = test: Antiproliferative activity against human A2780 cells assessed as inhibition of cell growth incubated for 72 hrs by MTT assay; type: functional
[7] = target: T1, Cyclin-dependent kinase 1/cyclin B (Homo sapiens, UniProt P06493); test: Inhibition of CDK1/Cyclin B (unknown origin) assessed as inhibition constant incubated for 30 to 60 mins presence of dithiothreitol by Cheng-Prusoff equation analysis; type: protein-complex assay
[8] = target: T2, Cyclin-dependent kinase 2/cyclin E (Homo sapiens, UniProt P24941); test: Inhibition of CDK2/cyclin E (unknown origin) assessed as inhibition constant incubated for 30 to 60 mins presence of dithiothreitol by Cheng-Prusoff equation analysis; type: protein-complex assay
[9] = target: Cyclin-dependent kinase 5/CDK5 activator 1 (Homo sapiens, UniProt Q00535); test: Inhibition of CDK5/p25 (unknown origin) assessed as inhibition constant incubated for 30 to 60 mins presence of dithiothreitol by Cheng-Prusoff equation analysis; type: protein-complex assay
Cyclin-dependent kinase 5/CDK5 activator 1, sequence (Q00535 whole entry): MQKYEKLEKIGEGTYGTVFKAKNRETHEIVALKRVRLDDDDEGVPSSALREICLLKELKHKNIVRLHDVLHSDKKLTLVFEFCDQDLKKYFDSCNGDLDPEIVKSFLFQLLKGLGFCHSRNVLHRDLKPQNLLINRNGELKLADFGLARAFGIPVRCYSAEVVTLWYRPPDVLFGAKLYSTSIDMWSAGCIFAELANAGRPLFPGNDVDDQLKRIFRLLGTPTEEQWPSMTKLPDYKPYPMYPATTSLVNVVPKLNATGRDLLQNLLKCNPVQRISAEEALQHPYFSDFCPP
Cyclin-dependent kinase 5/CDK5 activator 1, sequence (Q15078 whole entry, further chain): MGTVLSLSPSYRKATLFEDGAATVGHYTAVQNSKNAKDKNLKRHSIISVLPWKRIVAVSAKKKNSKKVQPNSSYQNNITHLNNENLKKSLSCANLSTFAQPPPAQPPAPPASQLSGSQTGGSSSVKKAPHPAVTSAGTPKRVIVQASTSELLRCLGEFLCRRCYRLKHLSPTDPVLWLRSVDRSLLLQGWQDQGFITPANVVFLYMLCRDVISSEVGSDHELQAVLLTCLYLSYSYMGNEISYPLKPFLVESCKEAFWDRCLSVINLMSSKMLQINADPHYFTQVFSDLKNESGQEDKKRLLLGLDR

CDK9/Cyclin T = CDK9/Cyclin T (Homo sapiens, UniProt P50750); test: Inhibition of CDK9/cyclin T (unknown origin) assessed as inhibition constant; type: protein-complex assay
CDK9/Cyclin T, sequence (O60563 whole entry): as the sequence (O60563 whole entry) above
CDK9/Cyclin T, sequence (P50750 whole entry): as the sequence (P50750 whole entry) above
CDK9/Cyclin T, sequence (O60583 whole entry, further chain): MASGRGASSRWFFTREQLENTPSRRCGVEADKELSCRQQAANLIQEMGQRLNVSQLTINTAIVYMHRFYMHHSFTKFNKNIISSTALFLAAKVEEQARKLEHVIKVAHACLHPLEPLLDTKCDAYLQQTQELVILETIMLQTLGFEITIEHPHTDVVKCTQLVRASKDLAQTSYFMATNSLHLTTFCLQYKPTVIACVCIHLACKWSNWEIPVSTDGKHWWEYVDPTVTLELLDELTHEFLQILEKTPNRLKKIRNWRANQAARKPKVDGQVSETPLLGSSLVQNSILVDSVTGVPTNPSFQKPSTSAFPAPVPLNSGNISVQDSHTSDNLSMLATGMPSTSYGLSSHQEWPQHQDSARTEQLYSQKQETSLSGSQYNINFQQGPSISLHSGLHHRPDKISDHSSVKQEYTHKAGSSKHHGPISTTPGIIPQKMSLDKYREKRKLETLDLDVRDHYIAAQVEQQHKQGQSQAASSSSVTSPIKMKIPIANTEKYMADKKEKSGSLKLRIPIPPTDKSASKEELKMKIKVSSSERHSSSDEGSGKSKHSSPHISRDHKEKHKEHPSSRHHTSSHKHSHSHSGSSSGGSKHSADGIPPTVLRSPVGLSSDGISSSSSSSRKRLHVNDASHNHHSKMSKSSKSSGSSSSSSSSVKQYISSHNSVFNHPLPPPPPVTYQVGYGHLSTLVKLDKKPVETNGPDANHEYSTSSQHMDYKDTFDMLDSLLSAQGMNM

[10] = target: T2, Cyclin-dependent kinase 2/cyclin E; test: Inhibition of CDK2/cyclin E (unknown origin) assessed as inhibition constant; type: protein-complex assay
[11] = target: T1, Cyclin-dependent kinase 1/cyclin B; test: Inhibition of CDK1/Cyclin B (unknown origin) assessed as inhibition constant; type: protein-complex assay
HCT-116 [12] = test: Induction of apoptosis in human HCT-116 cells assessed as late apoptotic cells at 1 uM incubated for 72 hrs by AnnexinV-FITC/propidium iodide staining based flow cytometry (reference value: 2.91%); type: functional
HCT-116 [13] = test: Induction of apoptosis in human HCT-116 cells assessed as viable cells at 1 uM incubated for 72 hrs by AnnexinV-FITC/propidium iodide staining based flow cytometry (reference value: 93.43%); type: functional; conditions: read-out: Activity
HCT-116 [14] = test: Induction of cell cycle arrest in human HCT-116 cells assessed as accumulation of cells at sub G1 phase at 1 uM incubated for 24 hrs by propidium iodide staining based flow cytometry (reference value: 0.24%); type: functional
HCT-116 [15] = test: Induction of apoptosis in human HCT-116 cells assessed as early apoptotic cells at 1 uM incubated for 72 hrs by AnnexinV-FITC/propidium iodide staining based flow cytometry (reference value: 2.95%); type: functional
HCT-116 [16] = test: Induction of cell cycle arrest in human HCT-116 cells assessed as accumulation of cells at G2/M phase at 1 uM incubated for 24 hrs by propidium iodide staining based flow cytometry (reference value: 28.37%); type: functional
HCT-116 [17] = test: Induction of cell cycle arrest in human HCT-116 cells assessed as accumulation of cells at G1 phase at 1 uM incubated for 24 hrs by propidium iodide staining based flow cytometry (reference value: 51.33%); type: functional
HCT-116 [18] = test: Induction of apoptosis in human HCT-116 cells assessed as necrotic cells at 1 uM incubated for 72 hrs by AnnexinV-FITC/propidium iodide staining based flow cytometry (Rvb =0.71%); type: functional
HCT-116 [19] = test: Induction of apoptosis in human HCT-116 cells assessed as increase in cleaved PARP level at 1 uM incubated for 24 hrs by Western blot analysis; type: functional, cell-based
HCT-116 [20] = test: Induction of cell cycle arrest in human HCT-116 cells assessed as accumulation of cells at S phase at 1 uM incubated for 24 hrs by propidium iodide staining based flow cytometry (reference value: 18.01%); type: functional
HCT-116 [21] = test: Antiproliferative activity against human HCT-116 cells assessed as inhibition of cell growth incubated for 72 hrs by MTT assay; type: functional
[22] = Antiproliferative activity against human COV318 cells assessed as inhibition of cell growth incubated for 72 hrs by MTT assay; type: functional
KM12 = test: Antiproliferative activity against human KM12 cells assessed as inhibition of cell growth incubated for 72 hrs by MTT assay; type: functional
ES-2 = test: Antiproliferative activity against human ES2 cells assessed as inhibition of cell growth incubated for 72 hrs by MTT assay; type: functional
MDA-MB-231 = test: Antiproliferative activity against human MDA-MB-231 cells assessed as inhibition of cell growth incubated for 72 hrs by MTT assay; type: functional
NCI-H82 = test: Antiproliferative activity against human NCI-H82 cells assessed as inhibition of cell growth incubated for 72 hrs by MTT assay; type: functional
COLO 205 = test: Antiproliferative activity against human COLO 205 cells assessed as inhibition of cell growth incubated for 72 hrs by MTT assay; type: functional
HT-29 = test: Antiproliferative activity against human HT-29 cells assessed as inhibition of cell growth incubated for 72 hrs by MTT assay; type: functional
NCI-H460 = test: Antiproliferative activity against human NCI-H460 cells assessed as inhibition of cell growth incubated for 72 hrs by MTT assay; type: functional
MV4-11 = test: Antiproliferative activity against human MV4-11 cells assessed as inhibition of cell growth incubated for 72 hrs by MTT assay; type: functional
[23] = Antiproliferative activity against human COV504 cells assessed as inhibition of cell growth incubated for 72 hrs by MTT assay; type: functional
OVCAR-5 = test: Antiproliferative activity against human OVCAR-5 cells assessed as inhibition of cell growth incubated for 72 hrs by MTT assay; type: functional
OAW-28 = test: Antiproliferative activity against human OAW-28 cells assessed as inhibition of cell growth incubated for 72 hrs by MTT assay; type: functional
OV-90 = test: Antiproliferative activity against human OV-90 cells assessed as inhibition of cell growth incubated for 72 hrs by MTT assay; type: functional
U-937 = test: Antiproliferative activity against human U-937 cells assessed as inhibition of cell growth incubated for 72 hrs by MTT assay; type: functional
U-251 = test: Antiproliferative activity against human U-251 cells assessed as inhibition of cell growth incubated for 72 hrs by MTT assay; type: functional

Cyclin-dependent kinase 5/CDK5 activator 1 (Homo sapiens), sequence (Q00535 whole entry): as the sequence (Q00535 whole entry) above
Cyclin-dependent kinase 5/CDK5 activator 1 (Homo sapiens), sequence (Q15078 99-307 partner limits assumed): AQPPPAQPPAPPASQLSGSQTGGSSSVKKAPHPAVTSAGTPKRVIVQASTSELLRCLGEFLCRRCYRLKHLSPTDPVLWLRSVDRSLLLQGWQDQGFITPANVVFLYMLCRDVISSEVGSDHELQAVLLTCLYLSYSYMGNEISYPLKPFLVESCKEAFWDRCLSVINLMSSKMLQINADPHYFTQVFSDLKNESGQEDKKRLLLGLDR

SMILES | inhibition [1] [%] | inhibition [2] [%] | Activity (A2780 [3]) [%] | inhibition [4] [%] | inhibition [5] [%] | GI50 (A2780 [6]) [nM] | Ki [7] [nM] | Ki [8] [nM] | Ki [9] [nM] | other results
Cn1cc(-c2nc(Nc3cccc(Cl)c3)ncc2F)cn1 | 46 | 50 | 12 | 69 | 57 |  |  |  |  | 
Cn1cc(-c2nc(Nc3cccc(S(N)(=O)=O)c3)ncc2Cl)cn1 |  |  |  |  |  | 80 | 5 | 176 | 92 | Ki (CDK9/cyclin T1): 301 nM
Cn1cc(-c2nc(Nc3ccc(S(N)(=O)=O)cc3)ncc2F)cn1 |  |  |  |  |  | 232 | 6 | 21 | 19 | Ki (CDK9/cyclin T1): 271 nM
Cn1cc(-c2nc(Nc3cccc([N+](=O)[O-])c3)ncc2Cl)cn1 | 56 | 24 |  | 73 | 48 | 7 |  |  |  | 
Cn1cc(-c2nc(Nc3ccc(S(=O)(=O)C(F)(F)F)cc3)ncc2F)cn1 | 46 | 54 | 54 | 6 | 15 |  |  | 70 |  | 
C[C@@]1(O)CCC[C@H]1n1c(=O)c(C(F)F)cc2cnc(NC3CCN(S(C)(=O)=O)CC3)nc21 [EBVACICLIB] |  |  |  |  |  |  |  |  |  | Ki (CDK9/Cyclin T): < 19 nM
Cn1cc(-c2nc(Nc3ccc(F)c(C(F)(F)F)c3)ncc2F)cn1 | 16 | 22 | 28 | 51 | 1 |  |  |  |  | 
Cn1cc(-c2nc(NC3CCN(S(C)(=O)=O)CC3)ncc2F)cn1 |  |  | 17 | 55 |  |  | 99 | 18 | 36 | 
Cn1cc(-c2nc(Nc3ccc(S(C)(=O)=O)cc3)ncc2F)cn1 |  |  | 5 | 33 |  |  | 146 |  | 42 | 
Cn1nccc1-c1nc(Nc2cccc(S(N)(=O)=O)c2)ncc1F | 48 | 65 | 0 | 59 |  |  |  | 171 |  | 
Cn1cc(-c2cc(N)nc(Nc3cccc(S(N)(=O)=O)c3)n2)cn1 | 41 | 4 | 0 | 57 | 13 |  |  |  |  | 
Nc1cc(-c2cnn(Cc3ccccc3)c2)nc(Nc2cccc(S(N)(=O)=O)c2)n1 | 40 | 6 | 0 | 40 | 53 |  |  |  |  | 
CC[C@@H](Nc1nc(NCc2cnc(C)cc2C)c2ncn(C(C)C)c2n1)[C@H](C)O |  |  |  |  |  |  |  |  |  | Ki [10]: 5 nM; Ki [11]: 578 nM
Cn1cc(-c2nc(Nc3cccc([N+](=O)[O-])c3)ncc2F)cn1 | 67 | 54 |  |  |  | 113 |  | 87 |  | Ki (CDK9/cyclin T1): 147 nM
CNc1nc(C)c(-c2nc(Nc3cccc(S(N)(=O)=O)c3)ncc2F)s1 [ASNUCICLIB] |  |  |  |  |  |  |  |  |  | Activity (HCT-116 [12]): 6.85%; viability at 1 µM (HCT-116 [13]): 77%; Activity (HCT-116 [14]): 1.21%; Activity (HCT-116 [15]): 15.19%; Activity (HCT-116 [16]): 53.11%; Activity (HCT-116 [17]): 28.88%; Activity (HCT-116 [18]): 0.95%; Activity (HCT-116 [19]): Active; Activity (HCT-116 [20]): 16.81%
Cn1cc(-c2nc(Nc3ccc(S(C)(=O)=O)cc3)ncc2Cl)cn1 |  |  | 63 |  |  |  | 6 | 7 | 36 | Ki (CDK9/cyclin T1): 229 nM
Cn1cc(-c2nc(Nc3cccc(S(=O)(=O)C(F)(F)F)c3)ncc2Cl)cn1 | 58 | 2 | 63 | 45 | 53 | 125 |  |  |  | 
Cc1nn(C)cc1-c1nc(NC2CCN(S(C)(=O)=O)CC2)ncc1Cl |  |  | 20 | 27 |  |  | 12 | 16 | 2 | 
Cn1cc(-c2nc(Nc3cccc(S(=O)(=O)C(F)(F)F)c3)ncc2F)cn1 | 46 | 42 |  | 20 | 1 | 215 |  |  |  | 
Cn1cc(-c2nc(Nc3cccc(S(N)(=O)=O)c3)ncc2F)cn1 |  |  |  |  |  | 18 | 5 | 23 | 77 | GI50 (HCT-116 [21]): 65 nM; GI50 [22]: 79 nM; GI50 (KM12): 90 nM; GI50 (ES-2): 109 nM; GI50 (MDA-MB-231): 129 nM; GI50 (NCI-H82): 119 nM; GI50 (COLO 205): 64 nM; GI50 (HT-29): 81 nM; GI50 (NCI-H460): 162 nM; Ki (CDK9/cyclin T1): 26 nM; GI50 (MV4-11): 32 nM; GI50 [23]: 106 nM; GI50 (OVCAR-5): 80 nM; GI50 (OAW-28): 149 nM; GI50 (OV-90): 83 nM; GI50 (U-937): 25 nM; GI50 (U-251): 154 nM
Cn1cc(-c2nc(NC3CCN(S(C)(=O)=O)CC3)ncc2Cl)cn1 |  |  | 45 | 39 |  |  | 26 | 8 | 9 | 
Cn1cc(-c2nc(Nc3ccc(C(F)(F)F)c(Cl)c3)ncc2F)cn1 | 3 | 8 | 32 | 39 | 10 |  |  |  |  | 
